# Results reported in US10842795B1, “Chemosensitization of resistant Pseudomonas aeruginosa by synthetically related compounds” (King Abdulaziz University, priority 2020, dated 2020).
# “Also recorded” adds a separate entry of the source.
# Columns and labels:
# [1] = system: Pseudomona aeruginosa ATCC 27853; test: Cup diffusion (agar plate diffusion) assay of ciprofloxacin chemosensitization; type: cell-based, Pseudomonas aeruginosa; settings: 200 μM compound with CPX, MDR-Pa, in words
# Protocol: ^1H NMR (400 MHz, DMSO-d6) δ 9.88 (s, 1H), 7.66 (dd, J=1.51, 7.78 Hz, 2H), 7.53-7.62 (m, 3H), 7.43-7.51 (m, 3H), 7.37-7.43 (m, 2H), 7.29-7.37 (m, 1H), 7.07-7.12 (m, 2H), 6.95-7.02 (m, 1H), 6.87 (d, J=15.81 Hz, 1H), 4.19 (q, J=7.11 Hz, 2H), 1.25 (t, J=7.15 Hz, 3H). Biological Screening Efflux Pump Inhibition (EPI) Screening Methodology: Bacterial isolate. Pseudomona aeruginosa ATCC 27853 stored at −70° C. in Trypticase soy broth supplemented with 10% glycerol was recovered for testing. Tests performed. Cup diffusion assay was performed to assess interaction between Ciprofloxacin CPX and 24 compounds. CPX minimum inhibitory concentrations (MICs) were determined alone and in the presence of each compound at concentrations ranging from 2000 to 62.5 μg/mL against P. aeruginosa. A fixed concentration of 200 μM of each compound was selected for testing.
# Briefly, Petri dishes (90 mm) were filled with 25 mL Muller-Hinton agar containing 1 mL bacterial culture (1×10^6 CFU/mL) and 200 μM of each compound. The strains were inoculated separately. Six holes (5 mm in diameter) were made in the seeded agar plates. The holes were then filled with 20 μL of each concentration of CPX, plate with CPX only was served as control. Dishes were then incubated for 24 h at 37° C. The MIC was recorded as the lowest concentration that inhibits the growth of the bacterial strains. […] All assays were performed in triplicate and MIC's values are given in μg/mL. The inhibition zone was measured using a caliper.
# The agar plate diffusion test (Zou, He et al. 2019) was utilized to qualitatively evaluate the ciprofloxacin killing effect on MDR-Pa in absence (control) and in presence of our designed efflux pump inhibitors.
# Pgp [2] = biological target: T1, Pgp (Homo sapiens, UniProt P08183); settings: reported earlier (El-Araby, Omar et al. 2017); cited from earlier work
# T1 construct: highly resistant cells K562 Adr500 which keep R123 outside the cancer cells; endogenous in cells; host or cells: K562 Adr500 (adriamycin-resistant human leukemia K562 cells)
# T1 sequence (P08183 whole entry): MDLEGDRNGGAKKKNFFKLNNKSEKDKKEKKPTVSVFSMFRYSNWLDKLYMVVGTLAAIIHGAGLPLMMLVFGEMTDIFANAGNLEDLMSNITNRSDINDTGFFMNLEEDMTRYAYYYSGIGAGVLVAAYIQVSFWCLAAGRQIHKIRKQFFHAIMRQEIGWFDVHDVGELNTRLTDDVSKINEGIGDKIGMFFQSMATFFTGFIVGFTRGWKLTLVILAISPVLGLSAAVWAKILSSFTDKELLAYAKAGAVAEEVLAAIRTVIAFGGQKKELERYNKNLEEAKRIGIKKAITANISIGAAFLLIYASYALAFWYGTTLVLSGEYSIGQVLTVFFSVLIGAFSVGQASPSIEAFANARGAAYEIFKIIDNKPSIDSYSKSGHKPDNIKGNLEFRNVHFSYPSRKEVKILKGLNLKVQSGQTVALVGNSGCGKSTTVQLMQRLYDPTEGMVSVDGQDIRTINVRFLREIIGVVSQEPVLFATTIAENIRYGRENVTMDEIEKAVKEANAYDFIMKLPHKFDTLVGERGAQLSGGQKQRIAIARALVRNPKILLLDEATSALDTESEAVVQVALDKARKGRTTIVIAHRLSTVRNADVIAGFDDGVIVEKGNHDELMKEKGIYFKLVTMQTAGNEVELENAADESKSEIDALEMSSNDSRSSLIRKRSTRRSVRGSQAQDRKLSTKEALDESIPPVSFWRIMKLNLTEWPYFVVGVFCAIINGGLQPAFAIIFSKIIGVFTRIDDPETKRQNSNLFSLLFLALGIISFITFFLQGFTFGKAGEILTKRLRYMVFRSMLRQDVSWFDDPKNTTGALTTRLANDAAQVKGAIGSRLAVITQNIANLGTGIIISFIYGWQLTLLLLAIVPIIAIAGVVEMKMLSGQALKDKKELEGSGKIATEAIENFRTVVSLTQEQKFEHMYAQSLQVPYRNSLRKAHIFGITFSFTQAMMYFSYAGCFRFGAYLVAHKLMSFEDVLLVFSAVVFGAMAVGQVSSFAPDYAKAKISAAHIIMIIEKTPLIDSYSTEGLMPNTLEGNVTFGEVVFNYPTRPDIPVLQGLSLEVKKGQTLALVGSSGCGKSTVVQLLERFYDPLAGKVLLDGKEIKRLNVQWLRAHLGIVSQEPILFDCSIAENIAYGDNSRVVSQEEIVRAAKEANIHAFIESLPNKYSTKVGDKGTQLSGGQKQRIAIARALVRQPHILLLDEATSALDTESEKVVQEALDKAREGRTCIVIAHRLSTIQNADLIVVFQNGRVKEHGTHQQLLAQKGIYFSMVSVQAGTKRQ
# MDR-Pa = test: Pseudomonas aeruginosa liquid killing assay on C. elegans (chemosensitization of MDR-Pa); type: in vivo; settings: for Survival x/50 in presence of CAB compounds at 25 μM: 25 μM CAB compound + 100 μg/mL CPX; for Survival x/50 in presence of CAB compounds at 50 μM: 50 μM CAB compound + 100 μg/mL CPX; for Survival x/50 in presence of CAB compounds at 100 μM: 100 μM CAB compound + 100 μg/mL CPX; for Survival x/50 in presence of CAB compounds at 200 μM: 200 μM CAB compound + 100 μg/mL CPX; for Activity in C. elegans model (survival and motility), in words: MDR-Pa infected C. elegans with CPX; for C. elegans + 100 μg/mL CPX) MIC: MDR-Pa infected C. elegans, in presence of 100 μg/mL CPX
# Protocol: In vivo EPI activity of compounds that illustrated an MIC against P. aeruginosa. ATCC 27853 were tested on C. elegans using the liquid killing assay (LKA). Briefly, eggs of C. elegans were hatched on lawns of E. coli OP50 on nematode growth medium agar. Worms were grown to L4 stage by incubation at 25° C. for 48 h. Worms were washed off the plate with M9 buffer, deposited onto lawns of E. coli OP50 or P. aeruginosa. ATCC 27853 and the plates were incubated at 25° C. for 16 h. OP50-fed or P. aeruginosa-infected worms were washed from the plate with M9 buffer, allowed to settle to bottom of Eppendorf tubes, and rinsed with M9 buffer. The M9 was then removed and worms were resuspended in 5 mL liquid killing medium (80% M9 and 20% nematode growth medium (NGMII)) and 95 μL aliquots with approximately 50 worms were added to the wells of 96-microtiter plates with or without test compounds at the indicated concentration ranges (starting from 200 μM) in presence of sub-MIC concentration of CPX (100 μg/mL). As a control, worms treated without test compound contained an equivalent amount of DMSO in the assay medium. Plates were scored for live worms at the time of inoculation and incubated at 37° C. for 24 h. Using a dissecting microscope, worms were considered dead if they appeared straight, and alive if they appeared S-shaped and were moving.
# C. elegans is a very efficient whole organism test. The worm develops several reliable disease pathways and can be recruited to measure therapeutic activities of compounds. The technique bears several advantages such as low cost, there is no need for special growth or assay conditions (c.f. animal house and expensive caring for in vivo test on mammalians such as rats) (Kaletta and Hengartner 2006) and there are no ethical issues with consuming animals. In our particular assay, C. elegans can be infected and killed by Pa, and therefore, can be used for identifying compounds that help to protect the worm from pathogenic bacteria (Ewbank and Zugasti 2011).
# We used the assay to measure the CAB N-alkyl derivatives CAB-30, CAB-35, CAB-36, CAB-37, CAB-38, CAB-40, CAB-41, CAB-42 and CAB-43 ability to protect C. elegans against MDR-Pa.
# [3] = Solubility (qualitative statement); type: physicochemical; settings: in words
# Pgp [4] = biological target: T1, Pgp; test: Rhodamine123 (R123) efflux assay in K562 Adr500 cells; type: cell-based; settings: in words
# Protocol: The cells (10^5) were counted and suspended in 1 ml RPMI medium. The appropriate CAB derivative (0.5 μM) was added to the medium alongside 1, 5 or 10 μM WYE-354, or 100 μM Verapamil as control inhibitors and incubated for 60 min at 37° C. Upon dye uptake, the cells were pelleted by centrifugation at 250×g for 5 min at 4° C. in a cold centrifuge. The harvested cells were washed twice with 1× ice-cold PBS and resuspended in 1 ml RPMI with the inhibitors alone, and reincubated for an additional 60 min at 37° C. to allow the efflux of R123. The cells were subsequently washed twice with ice-cold PBS and analyzed immediately on a BD FACSAria III. A minimum of 5,000 events were recorded for analysis.
# We studied the selectivity of CAB-38 by testing its Pgp inhibition (human efflux protein) activities. This assay was performed by measuring the retention of Rhodamine123 (R123) dye (substrate of Pgp) in human leukemia cell lines K562. The negative control of experiment is composed of highly resistant cells K562 Adr500 which keep R123 outside the cancer cells (FIG. 3A). The positive control is performed by repeating the same experiment after incubation of cells with everolimus sub-cytotoxic dose, a powerful Pgp inhibitor (FIG. 3B). The test compound was incubated with K562 Adr500 and then added R123 dye. […]
SMILES,"Enhancement of CPX antibiotic activity (chemosensitization, inhibition zone) [1]",Survival x/50 in presence of CAB compounds at 100 μM (MDR-Pa) [x/50],Survival x/50 in presence of CAB compounds at 200 μM (MDR-Pa) [x/50],C. elegans + 100 μg/mL CPX) MIC (MDR-Pa),also measured
"CCOC(=O)/C(=C/C=C/c1ccccc1)NC(=O)C=Cc1ccccc1 [CAB-21, Ethyl (2Z,4E)-2-Cinnamamido-5-Phenylpenta-2,4-Dienoate]",weak activities,–,–,–,–
CCCNC(=O)/C(=C/C=C/c1ccccc1)NC(=O)/C=C/c1ccccc1 [CAB-30],highest chemosensitization; also recorded: most potent,40,50,1.56 µM,"Pgp inhibition activities (Pgp [2]): undesired Pgp inhibition activities; Survival x/50 in presence of CAB compounds at 1.562 μM (MDR-Pa; 1.562 μM CAB compound + 100 μg/mL CPX): 20 x/50; Survival x/50 in presence of CAB compounds at 3.125 μM (MDR-Pa; 3.125 μM CAB compound + 100 μg/mL CPX): 20 x/50; Survival x/50 in presence of CAB compounds at 6.25 μM (MDR-Pa; 6.25 μM CAB compound + 100 μg/mL CPX): 20 x/50; Survival x/50 in presence of CAB compounds at 12.5 μM (MDR-Pa; 12.5 μM CAB compound + 100 μg/mL CPX): 20 x/50; Survival x/50 in presence of CAB compounds at 25 μM (MDR-Pa): 40 x/50; Survival x/50 in presence of CAB compounds at 50 μM (MDR-Pa): 40 x/50; Activity in C. elegans model (survival and motility), in words (MDR-Pa): highly potent"
"COc1ccc(NC(=O)/C(=C/C=C/c2ccccc2)NC(=O)C=Cc2ccccc2)cc1 [CAB-32, (2Z,4E)-2-cinnamamido-N-(4-methoxyphenyl)-5-phenylpenta-2,4-dienamide]",weak activities,–,–,–,–
"CNC(=O)/C(=C/C=C/c1ccccc1)NC(=O)C=Cc1ccccc1 [CAB-35, (2Z,4E)-2-cinnamamido-N-methyl-5-phenylpenta-2,4-dienamide]",–,–,15,200 µM,–
"N#Cc1cccc(NC(=O)/C(=C/C=C/c2ccccc2)NC(=O)C=Cc2ccccc2)c1 [CAB-36, (2Z,4E)-2-cinnamamido-N-(3-cyanophenyl)-5-phenylpenta-2,4-dienamide]",moderate chemosensitization activities,–,–,Died,Solubility [3]: poor solubility
"O=C(C=Cc1ccccc1)N/C(=C\C=C\c1ccccc1)C(=O)NCCO [CAB-37, (2Z,4E)-2-cinnamamido-N-(2-hydroxyethyl)-5-phenylpenta-2,4-dienamide]",–,–,–,50 µM,"Activity in C. elegans model (survival and motility), in words (MDR-Pa): did not show any activity"
"O=C(C=Cc1ccccc1)N/C(=C\C=C\c1ccccc1)C(=O)N1CCOCC1 [CAB-38, N-((2Z,4E)-1-morpholino-1-oxo-5-phenylpenta-2,4-dien-2-yl)cinnamamide]",–,10,40,25 µM,Pgp inhibition (retention of R123 dye in cells) (Pgp [4]): poor inhibitor of Pgp; also recorded: no inhibition observed; also recorded: not retention of R123 dye; Survival x/50 in presence of CAB compounds at 25 μM (MDR-Pa): 3 x/50; Survival x/50 in presence of CAB compounds at 50 μM (MDR-Pa): 5 x/50; Solubility [3]: improved solubility
"COc1cccc(NC(=O)/C(=C/C=C/c2ccccc2)NC(=O)C=Cc2ccccc2)c1 [CAB-40, (2Z,4E)-2-cinnamamido-N-(3-methoxyphenyl)-5-phenylpenta-2,4-dienamide]",weak activities,–,25,200 µM,–
"O=C(C=Cc1ccccc1)N/C(=C\C=C\c1ccccc1)C(=O)N1CCCC1 [CAB-41, N-((2Z,4E)-1-oxo-5-phenyl-1-(pyrrolidin-1-yl)penta-2,4-dien-2-yl)cinnamamide]",–,7,25,50 µM,Survival x/50 in presence of CAB compounds at 50 μM (MDR-Pa): 5 x/50
"CCCCNC(=O)/C(=C/C=C/c1ccccc1)NC(=O)C=Cc1ccccc1 [CAB-42, (2Z,4E)-N-butyl-2-cinnamamido-5-phenylpenta-2,4-dienamide]",–,5,45,100 µM,–
"CC(C)NC(=O)/C(=C/C=C/c1ccccc1)NC(=O)C=Cc1ccccc1 [CAB-43, (2Z,4E)-2-cinnamamido-N-isopropyl-5-phenylpenta-2,4-dienamide]",–,–,–,Died,–
"O=C(O)c1cn(C2CC2)c2cc(N3CCNCC3)c(F)cc2c1=O [Control (Cipro Only), ciprofloxacin, reference compound]",–,–,–,Died,–
"CO[C@H]1C[C@@H]2CC[C@@H](C)[C@@](O)(O2)C(=O)C(=O)N2CCCC[C@H]2C(=O)O[C@H]([C@H](C)C[C@@H]2CC[C@@H](OCCO)[C@H](OC)C2)CC(=O)[C@H](C)/C=C(\C)[C@@H](O)[C@@H](OC)C(=O)[C@H](C)C[C@H](C)/C=C/C=C/C=C/1C [everolimus, reference compound]",–,–,–,–,Pgp inhibition (retention of R123 dye in cells) (Pgp [4]): large increase of R123 dye
